Measurements published in article PMC9145622, “Synthesis, Biological Evaluation, and Docking Studies of Antagonistic Hydroxylated Arecaidine Esters Targeting mAChRs” (Molecules, 2022).

Legend:
[1] = molecular target: T1, hM5 (Homo sapiens, UniProt P08912); assay: Competitive [3H]NMS radioligand binding, CHO-K1 membranes expressing hM5; conditions: for Ki: [3H]NMS, CHO-hM5 cell membrane preparations, read-out: Affinity: Ki ± SD hM5
T1 sequence (P08912 1-532): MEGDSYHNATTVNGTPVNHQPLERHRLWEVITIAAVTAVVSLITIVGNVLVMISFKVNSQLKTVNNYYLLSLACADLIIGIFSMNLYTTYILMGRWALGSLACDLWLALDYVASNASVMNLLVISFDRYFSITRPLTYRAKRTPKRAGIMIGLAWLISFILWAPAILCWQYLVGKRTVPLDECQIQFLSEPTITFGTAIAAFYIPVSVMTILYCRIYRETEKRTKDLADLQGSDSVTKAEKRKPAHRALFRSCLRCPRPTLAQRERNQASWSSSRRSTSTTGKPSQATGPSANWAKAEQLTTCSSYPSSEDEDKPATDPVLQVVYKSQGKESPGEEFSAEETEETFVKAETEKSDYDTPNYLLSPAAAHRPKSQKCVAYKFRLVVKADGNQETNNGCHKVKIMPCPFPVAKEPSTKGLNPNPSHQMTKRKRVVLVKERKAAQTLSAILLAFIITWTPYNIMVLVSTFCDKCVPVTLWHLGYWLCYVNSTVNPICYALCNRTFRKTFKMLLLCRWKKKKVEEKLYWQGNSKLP
From the text: (§1) The arecaidine esters’ affinities towards the human mAChR subtypes hM1–hM5 were studied in a competitive radioligand binding assay using CHO-K1 cell membrane homogenates expressing a single mAChR subtype and tritiated N-methyl scopolamine methyl chloride ([^3H]NMS). To speed up our affinity testing regime, we subjected all test substances to preliminary single-concentration displacement assays, as described previously. Compounds with percent displacements below 75% at any of the subtypes were dropped from further investigations (Table S1). For compounds meeting the percent displacement threshold (8c, 10b, 10c, 17b, 18b, and 25), inhibition constants (Ki) were assessed in dose-dependent displacement experiments (Table 2).
(§2) Cell membranes bearing hM1-hM5 receptors were prepared as described previously. Briefly, stably transfected CHO-K1 cells were grown to at least 80% confluency in T175 flasks, washed with ice-cold DPBS, and scraped into a mixture of ice-cold 2 mL 10 mM Tris-HCl, 1 mM EDTA-buffer, pH 7.4 and 200 µL protease inhibitor. A cell homogenate was prepared by passing the cell suspension through a G29 needle. The cell homogenates corresponding to two T175 flasks were combined and subsequently centrifuged (10 min, 1000× g, 4 °C). Ultracentrifugation of the supernatant (1 h, 100,000× g, 4 °C) yielded a membrane pellet, which was suspended in 250 µL 50 mM Tris-HCl buffer, pH 7.4 and stored at −80 °C.
(§3) Then, 5 µL of test compound in DMSO, 50 µL of [^3H]NMS in assay buffer, and 445 µL of membrane suspension in assay buffer were incubated for 90 min at 23 °C in PP tubes. Maximum binding was measured by using 5 µL DMSO, and nonspecific binding was measured by using 5 µL of 1 µM scopolamine in DMSO. The effective concentration of [^3H]NMS was 0.2 nM, 0.3 nM, 0.8 nM, 0.2 nM, and 1 nM for M1–M5 and 4–30 µg membrane were used per tube. The membrane-bound radioactivity was recovered by filtration through Whatman™ GF/B glass fiber filters presoaked in aqueous 0.1% PEI using an M-36 tygon tubed cell harvester (Brandel®, Gaithersburg, MD, USA). Membranes were washed three times with ice-cold washing buffer (50 mM Tris, pH 7.4) before being dried, transferred to 2 mL scintillation cocktail (UltimaGold™, high flashpoint LSC cocktail, PerkinElmer, Waltham, MA, USA) and counted in a β-counter (Hidex TDCR liquid scintillation counter in CPM mode). IC50 values were calculated by a variable slope logistic regression using at least five distinct concentrations of test compounds, pipetted in triplicates.

[2] = molecular target: T2, hM4 (Homo sapiens, UniProt P08173); assay: Competitive [3H]NMS radioligand binding, CHO-K1 membranes expressing hM4; conditions: [3H]NMS, CHO-hM4 cell membrane preparations; read-out: Affinity: Ki ± SD hM4
T2 sequence (P08173 1-479): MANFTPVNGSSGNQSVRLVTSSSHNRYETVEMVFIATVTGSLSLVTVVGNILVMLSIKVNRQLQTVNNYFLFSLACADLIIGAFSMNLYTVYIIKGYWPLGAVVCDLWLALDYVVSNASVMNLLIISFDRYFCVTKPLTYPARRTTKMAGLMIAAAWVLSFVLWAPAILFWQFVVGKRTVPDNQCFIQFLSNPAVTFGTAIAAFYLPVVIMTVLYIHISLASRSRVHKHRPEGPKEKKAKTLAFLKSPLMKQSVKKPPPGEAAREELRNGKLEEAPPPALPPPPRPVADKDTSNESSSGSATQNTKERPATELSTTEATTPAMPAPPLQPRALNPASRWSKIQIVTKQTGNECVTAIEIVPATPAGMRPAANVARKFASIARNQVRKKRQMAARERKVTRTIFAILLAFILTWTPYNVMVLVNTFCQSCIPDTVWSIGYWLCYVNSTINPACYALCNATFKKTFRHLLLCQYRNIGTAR
From the text: as §1, §2, §3

| Structure (SMILES) | Ki [1] [nM] | Ki [2] [nM] | melting point [°C] | preference for hM5R over hM1R ([1]; in vitro binding affinities) |
| --- | --- | --- | --- | --- |
| CN1CCC=C(C(=O)OC(c2ccccc2)c2ccc(CO)cc2)C1 (centres unmarked) [Compound 10c, (4-(hydroxymethyl)phenyl)(phenyl)methyl 1-methyl-1,2,5,6-tetrahydropyridine-3-carboxylate] | 72 ± 13 | 93 ± 23 |  |  |
| CN1CCC=C(C(=O)OCc2cccc(O)c2)C1 [Compound 18b, 3-hydroxybenzyl 1-methyl-1,2,5,6-tetrahydropyridine-3-carboxylate] | 90 ± 27 | 634 ± 90 | 115 to 119 | almost threefold |
| CN1CCC=C(C(=O)OCc2ccc(CO)cc2)C1 [Compound 8c, 4-(hydroxymethyl)benzyl 1-methyl-1,2,5,6-tetrahydropyridine-3-carboxylate] | 417 ± 73 | 697 ± 132 |  |  |
| CN1CCC=C(C(=O)OCC(O)(c2ccccc2)c2ccccc2)C1 [Compound 25, 2-hydroxy-2,2-diphenylethyl 1-methyl-1,2,5,6-tetrahydropyridine-3-carboxylate] | 284 ± 62 | 217 ± 23 | 150 to 153 |  |
| CN1CCC=C(C(=O)OC(c2ccccc2)c2cccc(O)c2)C1 (centres unmarked) [Compound 17b, (3-hydroxyphenyl)(phenyl)methyl 1-methyl-1,2,5,6-tetrahydropyridine-3-carboxylate] | 11 ± 1.5 | 18.4 ± 5.8 | 143 to 144 |  |
